Results as given in patent US7682351B2, “Method for infusing insulin to a subject to improve impaired hepatic glucose processing” (priority 2003, dated 2010).
Entries after “also recorded” stand apart in the source; their conditions may differ.

Assays:
Type in all cases: in vivo, human
[1] = system: type 1 DM patients with nephropathy; assay: 18-month multi-center controlled study of Chronic Intermittent Intravenous Insulin Therapy (CIIIT) on progression of diabetic nephropathy
Method: A study was conducted to assess the effects of Chronic Intermittent Intravenous Insulin Therapy (CIIIT) on the progression of diabetic nephropathy in patients with type 1 diabetes mellitus (DM). This 18-month multi-center, prospective, controlled study involved 49 type 1 DM patients with nephropathy who were following the Diabetes Control and Complications Trial (DCCT) intensive therapy (IT) regimen. Of these, 26 patients formed the control group C, which continued on IT, while 23 patients formed the treatment group (T) and underwent, in addition to IT, weekly CIIIT.
For all of the above listed examples, after the initial few days of treatment, the patients underwent treatment once a week, each treatment day consisting of three infusions of insulin accompanied by ingestion of carbohydrates. The infusion device used to infuse the insulin was the BIONICA MD-110 pump. Typically there were ten pulses given over a period of one hour, and a rest period of one hour was taken between infusions of insulin. The form in which the carbohydrates were ingested changed from time to time and included eating foods of high glycemic index including but not limited to bread and cake. The patients' circulating glucose was measured once every thirty minutes by the finger stick method currently used by most diabetic patients. […]

[2] = system: diabetic patients with neuropathy; assay: Case reports: diabetic neuropathy patients treated with the subject method
Description: (§1) The preferred embodiment of the method for delivering insulin pulses to a patient to improve impaired hepatic glucose processing is as follows. On the morning of the procedure, the patient is preferably seated in a blood drawing chair and a 23 gauge needle or catheter is preferably inserted into a hand or forearm vein to obtain vascular access. However, any system of such access may accomplish the needed result, including indwelling catheters, PICC lines and PORTACATHS. After a short equilibration period, the patient is asked to make a circulating glucose measurement prior to starting the actual infusion of insulin. A steady baseline circulating glucose level is achieved when two identical consecutive measurements taken 5 minutes apart is obtained. It is preferable that patients have circulating glucose levels close to 200 mg/dl prior to using the infusion method. In the case of pregnant diabetic women, however, every attempt is made to keep the maximum circulating glucose level to 150 mg/dl or less.
(§2) After the circulating glucose measurement has been taken and the patient has the proper circulating glucose starting level, the patient is asked to consume a liquid or food containing glucose. The amount of glucose given to s diabetic patient ranges from 60 to 100 grams, but for small framed people the amount could be as low as 40 grams of glucose. However, the amount of initial glucose given to the patient may vary. Liquid or food containing glucose is consumed by the patient to prevent the patient from becoming hypoglycemic. The preferred liquid or food is GLUCOLA, but any similar type of liquid or high glycemic food, including but not limited to cake and bread, containing glucose may be given to the patient. In a non-diabetic patient more glucose may be required than in the diabetic patient, but the other parameters would remain the same, including the need for a pulsed delivery of insulin.
Pulses of insulin are then administered intravenously at planned intervals of time, usually every six minutes. However other intervals may be used from as low as every three minutes up to every 30 minutes. For diabetic patients the amount of insulin in each pulse is 10-200 milliunits of insulin per kilogram of body weight; for non-diabetic patients the amount of insulin in each pulse is slightly lower. […]
(§3) For all of the above listed examples, after the initial few days of treatment, the patients underwent treatment once a week, each treatment day consisting of three infusions of insulin accompanied by ingestion of carbohydrates. […] The patients' circulating glucose was measured once every thirty minutes by the finger stick method currently used by most diabetic patients. […]

[3] = system: diabetic patients with heart disease; assay: Case reports: diabetic heart disease patients treated with the subject method
Description: as §1
as §2, with “In a non-diabetic patient more glucose may be required than in the diabetic patient, but the other parameters would remain the same, including the need for a pulsed delivery of insulin.” left out
as §3

[4] = system: diabetic patients with retinopathy; assay: Case reports: diabetic retinopathy patients treated with the subject method; conditions: single patients with retinopathy; listed as subject method
Description: as §1, with “less. […]” for “less.”
as §3

[5] = system: type 2 diabetic patient with diabetes related kidney disease; assay: Case report: diabetes related kidney disease (proteinuria) treated with the subject method; conditions: 1500 milligrams per 24-hour period before treatment, increasing 500 milligrams/24 hours/year; 5 years of use
Description: as §1, with “less. […]” for “less.”
as §3

[6] = system: type 2 diabetic male with autonomic neuropathy; assay: Case report: elevated blood pressure with autonomic neuropathy treated with the subject method; conditions: 200/120 before treatment despite intensive insulin therapy; 5 years of use
Description: as §1, with “less. […]” for “less.”
as §3

[7] = system: diabetic patients with leg ulcers; assay: Case reports: diabetes related leg ulcers treated with the subject method; conditions: ulcers not responding to any available therapy; listed as subject method
Description: as §1, with “less. […]” for “less.”
as §3

[8] = system: patients suffering from senile dementia; assay: Senile dementia in diabetic patients treated with the method (Hepatic Activation)
Description: as §1
After the circulating glucose measurement has been taken and the patient has the proper circulating glucose starting level, the patient is asked to consume a liquid or food containing glucose. The amount of glucose given to s diabetic patient ranges from 60 to 100 grams, but for small framed people the amount could be as low as 40 grams of glucose. […]

[9] = type 1 person with severe neuropathy, Example 14

Substance: insulin
- effect on progression of diabetic nephropathy (conclusion) ([1]; CIIIT added to IT in type 1 DM patients with overt nephropathy): markedly reduce the progression of diabetic nephropathy
- rate of creatinine clearance (CrCl) decline ([1]; T group (n=23): DCCT intensive therapy (IT) plus weekly CIIIT, 18 months, control group C on IT alone 7.69±1.88 ml/min/yr, P=0.0343): 2.21±1.62 ml/min/yr
- neuropathic pain after treatment ([2]; single patients with polyneuropathy / painful peripheral neuropathy, weekly treatment, listed as subject method): pain has been reduced to the point where the person enjoys rigorous exercise; also recorded: no longer takes pain medication and has no twinges of pain in their legs; also recorded: pain had subsided to the point where they no longer used a wheelchair
- gastroparesis after treatment [2, 9]: gastroparesis was reversed
- numbness in legs after treatment [2, 9]: numbness in their legs has gone away
- autonomic neuropathy symptoms after treatment (overall disease state) ([2]; type 1 person, bed-ridden with autonomic neuropathy before treatment, two years of use): reversed all of the diseases to the point where they have taken themself off disability
- cardiac clinical outcome after treatment ([3]; single patients with diabetes related heart disease, listed as subject method): no longer required a heart transplant; also recorded: could withstand 4-vessel by-pass surgery; also recorded: condition improved to the point where the doctors performed two instead of one grafts
- daily insulin intake after treatment ([3]; type 2 patient with dilated cardiomyopathy, 150 units a day before treatment): 24-26 units/day
- ejection fraction after treatment ([3]; type 2 patient with severe dilated cardiomyopathy, 14-19% before treatment, 10 years of treatment): 29-32%
- eyesight / retinal outcome after treatment [4]: eyesight improved to the point where night driving was no longer a concern; also recorded: the bleeding stopped, and there was no further deterioration of the retina
- proteinuria after treatment [5]: 600-800 milligrams/24 hours
- blood pressure after treatment [6]: 120/80
- leg ulcer outcome after treatment [7]: ulcers on their second leg healed; also recorded: ulcers healed and have never returned
- dementia symptoms after treatment ([8]; listed as Hepatic Activation): significant improvement in their motor skills, memory, and cognitive function
- dementia symptoms after treatment ([8]; listed as present invention): clearly shown improvement in confusion, weakness, disorientation, cognitive function and lack of memory
